Results: patent US20140329863A1 (priority 2011, published 2014)
Where “and” joins values, the source holds several entries; their conditions need not be identical. Identical values can stand only once. Like-named read-outs stand apart in the source and are kept apart here.

Tests used:
[1] = system: PrP^Sc in dividing ScN2a-cl3 cells; assay type: cell-based, mouse; set-up: Dividing ELISA pEC50 (μM) 1st Expt. / Dividing ELISA pEC50 (μM) 2nd Expt. / Dividing ELISA pEC50 (μM) 3rd Expt. / Dividing ELISA pEC50 (μM) Mean: unit not given here
[2] = in vitro; settings: mouse
[3] = system: N2a-cl3 cells; assay: cells; settings: Mus musculus, N2a-cl3, read-out: Dividing Calcein EC50 (μM) Mean (n = 3)
[4] = Hepatic microsomal stability, rat; settings: […]
[5] = system: PrP^Sc in nondividing ScN2a-cl3 cells; assay type: cell-based, mouse; settings: read-out: Non-Dividing ELISA EC50 (μM) Mean (n = 3); ScN2a-c13 non-dividing cells; mean n = 3
[6] = system: PrP^Sc in ScN2a-cl3 cells; assay type: cell-based, mouse; settings: Western immunoblots
[7] = system: N2a-cl3 cells; settings: mouse
[8] = read-out: Antiprion activity EC50, thienopyridine analogs
[9] = ScN2a-cl3 dividing cells, 1st determination
[10] = ScN2a-cl3 dividing cells, 2nd determination
[11] = ScN2a-cl3 dividing cells, 3rd determination
[12] = ScN2a-cl3 dividing cells, mean of three determinations
[13] = read-out: Dividing ELISA EC50 (μM) 1st Expt., ScN2a-cl3 dividing cells, 1st determination
[14] = read-out: Dividing ELISA EC50 (μM) 2nd Expt., ScN2a-cl3 dividing cells, 2nd determination
[15] = read-out: Dividing ELISA EC50 (μM) 3rd Expt., ScN2a-cl3 dividing cells, 3rd determination
[16] = read-out: Dividing ELISA EC50 (μM) Mean, ScN2a-cl3 dividing cells, mean of three determinations
[17] = read-out: Potency (nM) Western (EC50), dividing ScN2a-cl3 cells

| Structure (SMILES) | EC50 [1, 8] | CC50 [2] | EC50 [3] | Dividing ELISA pEC50 (μM) 1st Expt. [1, 9] | Dividing ELISA pEC50 (μM) 2nd Expt. [1, 10] | Dividing ELISA pEC50 (μM) 3rd Expt. [1, 11] | Dividing ELISA pEC50 (μM) Mean [1, 12] | EC50 [1, 13] | EC50 [1, 14] | EC50 [1, 15] | EC50 [1, 16] | EC50 [5] | melting point | other results |
| --- | --- | --- | --- | --- | --- | --- | --- | --- | --- | --- | --- | --- | --- | --- |
| COc1ccc(-c2ccc3c(N)c(C(=O)Nc4ccc(C(C)=O)cc4)sc3n2)cc1 [IND-0037769] | 0.097 µM | > 10 µM | – | – | – | – | – | – | – | – | – | – | – | – |
| COc1ccc(NC(=O)c2sc3nc(-c4cccs4)ccc3c2N)cc1OC [IND-0024573] | 0.396 µM | > 10 µM | – | – | – | – | – | – | – | – | – | – | – | – |
| Cc1ccc(Nc2nc(-c3ccccc3)cs2)nc1 [compound 25, (5-Methylpyridin-2-yl)-(4-phenylthiazol-2-yl)-amine] | – | – | > 32 µM | 4.89 | 5.31 | 5.24 | 5.15 | 13 µM | 4.9 µM | 5.74 µM | 7.88 µM | > 32 µM | – | EC50 ([1]; read-out: Antiprion activity ScN2a-cl3 EC50, ScN2a-cl3 cells): 7.88 µM; Microsome stability T1/2 [4]: 10 min |
| Nc1c(C(=O)Nc2cc(F)ccc2F)sc2nc(-c3cccs3)ccc12 [IND-0024581] | 2.06 µM | > 10 µM | – | – | – | – | – | – | – | – | – | – | – | – |
| COc1ccc(CNC(=O)c2sc3nc(-c4ccc(OC)cc4)ccc3c2N)cc1 [IND-0040541] | > 10 µM | > 10 µM | – | – | – | – | – | – | – | – | – | – | – | – |
| COc1cc(NC(=O)c2sc3nc(-c4cccs4)ccc3c2N)cc(OC)c1OC [IND-0042103] | > 10 µM | > 10 µM | – | – | – | – | – | – | – | – | – | – | – | – |
| O=C(Nc1nc(-c2ccc3ccccc3c2)cs1)C1CC1 [IND-0030883] | – | > 10 µM | – | – | – | – | – | – | – | – | – | – | – | EC50 [6, 17]: 570 nM; EC50 ([1]; read-out: Potency (nM) ELISA (EC50), PrP^Sc ELISA, dividing ScN2a-cl3 cells): 0.913 µM |
| CSc1ccc(NC(=O)c2sc3nc(-c4cccs4)ccc3c2N)cc1 [IND-0024576] | 0.077 µM | > 10 µM | – | – | – | – | – | – | – | – | – | – | – | – |
| COc1ccc(-c2ccc3c(N)c(C(=O)Nc4ccc(F)cc4)sc3n2)cc1OC [IND-0044746] | 0.227 µM | > 10 µM | – | – | – | – | – | – | – | – | – | – | – | – |
| CC(=O)c1ccc(N2CCN(Cc3cccnc3)CC2)cc1 [IND-0018629] | – | > 10 µM | – | – | – | – | – | – | – | – | – | – | – | EC50 ([6]; read-out: EC50 (nM): Western, ScN2a-cl3 cells): 886 nM; EC50 [6, 17]: 886 nM; EC50 (nM): Calcein (LC50 values from calcein assays) [7]: MW: 295.4 EC50 (nM): ELISA: 2943 Calcein: >10,000 Western: 886 |
| COc1ccc(Nc2nc(-c3ccc(OC)c(OC)c3)cs2)nc1 [compound 13, [4-(3,4-dimethoxyphenyl)-thiazol-2-yl]-(5-methoxypyridin-2-yl)-amine] | – | – | > 32 µM | – | – | – | – | – | – | 0.917 µM | – | > 32 µM | – | Microsome stability T1/2 [4]: 45 min |
| COc1ccc(-c2csc(Nc3ncccc3C)n2)cc1OC [compound 15, [4-(3,4-dimethoxyphenyl)-thiazol-2-yl]-(3-methylpyridin-2-yl)-amine] | – | – | > 32 µM | 4.89 | 5.68 | 5.17 | 5.25 | 13 µM | 2.07 µM | 6.81 µM | 7.29 µM | > 32 µM | 264 to 266 °C | – |
| COc1ccc(-c2csc(C(=O)Nc3cc4ccccc4cn3)n2)cc1OC [compound 48, 4-(3,4-dimethoxyphenyl)-thiazole-2-carboxylic acid isoquinolin-3-ylamide] | – | – | > 10 µM | >4.5 | >4.5 | >4.5 | – | > 10 µM | > 10 µM | > 10 µM | > 10 µM | > 10 µM | 196 to 202 °C | – |
| COc1ccc(-c2csc(Nc3ccc4ccccc4c3)n2)cc1OC [compound 19, [4-(3,4-dimethoxyphenyl)-thiazol-2-yl]-naphthalen-2-yl-amine] | – | – | > 32 µM | 6.36 | 6.50 | 6.38 | 6.41 | 0.436 µM | 0.317 µM | 0.413 µM | 0.389 µM | > 32 µM | 221 to 224 °C | – |
| COc1ccc(-c2ccc3c(N)c(C(=O)Nc4ccc5c(c4)OCCO5)sc3n2)cc1 [IND-0035833] | > 10 µM | > 10 µM | – | – | – | – | – | – | – | – | – | – | – | – |
| Nc1c(C(=O)Nc2ccc(F)cc2)sc2nc(-c3ccc4c(c3)OCO4)ccc12 [IND-0042063] | 0.613 µM | > 10 µM | – | – | – | – | – | – | – | – | – | – | – | – |
| COc1ccc(-c2csc(N(C)c3cc4ccccc4cn3)n2)cc1OC [compound 49, [4-(3,4-dimethoxyphenyl)-thiazol-2-yl]-isoquinolin-3-yl-methyl-amine] | – | – | > 10 µM | 6.82 | 6.71 | 7.08 | 6.87 | 0.152 µM | 0.196 µM | 0.083 µM | 0.144 µM | > 10 µM | 165 to 166 °C | – |
| COc1ccc(-c2ccc3c(N)c(C(=O)Nc4ccc(F)cc4)sc3n2)cc1 [IND-0035860] | 0.057 µM and 0.059 µM | > 10 µM | – | – | – | – | – | – | – | – | – | – | – | – |
| COc1ccc(-c2csc(Nc3ncccn3)n2)cc1OC [compound 10, [4-(3,4-dimethoxyphenyl)-thiazol-2-yl]pyrimidin-2-yl-amine] | – | – | > 32 µM | 5.49 | 5.17 | 5.73 | 5.46 | 3.25 µM | 6.71 µM | 1.85 µM | 3.94 µM | > 32 µM | 225 to 228 °C | – |
| COc1ccc(-c2ccc3c(N)c(C(=O)NCCc4ccc(OC)c(OC)c4)sc3n2)cc1 [IND-0037771] | 0.419 µM | > 10 µM | – | – | – | – | – | – | – | – | – | – | – | – |
| COc1ccc(-c2csc(Nc3cccc(C)n3)n2)cc1OC [compound 4, [4-(3,4-dimethoxyphenyl)-thiazol-2-yl]-(6-methylpyridin-2-yl)-amine] | – | – | > 32 µM | 5.25 | 5.92 | 5.65 | 5.61 | 5.62 µM | 1.19 µM | 2.22 µM | 3.01 µM | > 32 µM | 264 to 266 °C | – |
| c1ccc(-c2csc(Nc3cc4ccccc4cn3)n2)cc1 [compound 33, Isoquinolin-3-yl-(4-phenylthiazol-2-yl)-amine] | – | – | > 32 µM | 5.69 | 5.55 | 5.37 | 5.53 | 2.06 µM | 2.85 µM | 4.32 µM | 3.08 µM | > 32 µM | 265 to 267 °C | – |
| c1ccc(-c2cc(-c3csc(Nc4ccccn4)n3)on2)cc1 [compound 42, [4-(3-Phenylisoxazol-5-yl)-thiazol-2-yl]pyridin-2-yl-amine] | – | – | > 32 µM | 6.20 | 6.22 | 6.23 | 6.22 | 0.629 µM | 0.599 µM | 0.585 µM | 0.604 µM | > 32 µM | 211 to 215 °C | – |
